According to paper PMC10489938, “Developing an Amide-Spacered Triterpenoid Rhodamine Hybrid of Nano-Molar Cytotoxicity Combined with Excellent Tumor Cell/Non-Tumor Cell Selectivity” (Molecules, 2023):
Like-named read-outs stand apart in the source and are kept apart here.

Legend:
A375 (melanoma) = assay: SRB cytotoxicity assay, A375; type: cell-based, human; details: Homo sapiens, A-375, SRB assay, 72 h of treatment, cut-off 30 μM, read-out: Cytotoxicity (EC50) A375
Description: (§1) Sulforhodamine (SRB) assays were performed to evaluate the cytotoxicity of the compounds. First, the cytotoxicity of the different rhodamines was determined; the results of these assays are compiled in Table 1 and Table 2 and depicted in Figure 1.
(§2) Experimental equipment: as previously described biological assays were performed as previously reported employing cell lines obtained from the Department of Oncology [Martin-Luther-University Halle Wittenberg; they were bought from ATCC [2, 4, 7]]. Rhodamine 101 B, as well as asiatic acid, were obtained from local vendors and used as received.
(§3) For the SRB assay and staining experiments: as previously described.

[1] = tested on: HT29 (colorectal carcinoma); assay: SRB cytotoxicity assay, HT29; type: cell-based, human; details: Homo sapiens, HT-29, SRB assay, 72 h of treatment, cut-off 30 μM, read-out: Cytotoxicity (EC50) HT29
Description: as §1, §2, §3

[2] = tested on: MCF7 (breast adenocarcinoma); assay: SRB cytotoxicity assay, MCF7; type: cell-based, human; details: Homo sapiens, MCF7, SRB assay, 72 h of treatment, cut-off 30 μM, read-out: Cytotoxicity (EC50) MCF7
Description: as §1, §2, §3

[3] = tested on: A2780 (ovarian carcinoma); assay: SRB cytotoxicity assay, A2780; type: cell-based, human; details: Homo sapiens, A2780, SRB assay, 72 h of treatment, cut-off 30 μM, read-out: Cytotoxicity (EC50) A2780
Description: as §1, §2, §3

[4] = tested on: HeLa (cervical adenocarcinoma); assay: SRB cytotoxicity assay, HeLa; type: cell-based, human; details: Homo sapiens, HeLa, SRB assay, 72 h of treatment, cut-off 30 μM, read-out: Cytotoxicity (EC50) HeLa
Description: as §1, §2, §3

[5] = SRB cytotoxicity assay, NIH 3T3; type: cell-based, murine; details: mouse, NIH 3T3 non-malignant fibroblasts, cut-off 30 μM
Description: as §1, §2, §3

Row | Structure (SMILES) | EC50 (A375 (melanoma); Table 2) | EC50 ([1]; Table 2) | EC50 ([2]; Table 2) | EC50 ([3]; Table 2) | EC50 ([4]; Table 2) | EC50 at 72 h ([5]; Table 2, 72 h of treatment) | EC50 ([1]; Table 1) | EC50 ([2]; Table 1) | EC50 ([3]; Table 1) | EC50 at 72 h ([5]; Table 1, 72 h of treatment) | EC50 (A375 (melanoma); Table 1) | EC50 ([4]; Table 1)
1 | CCN(CC)c1ccc2c(-c3ccccc3C(=O)N3CCN(C(=O)[C@]45CC[C@@H](C)[C@H](C)[C@H]4C4=CC[C@@H]6[C@@]7(C)C[C@@H](OC(C)=O)[C@H](OC(C)=O)[C@@](C)(COC(C)=O)C7CC[C@@]6(C)[C@]4(C)CC5)CC3)c3ccc(=[N+](CC)CC)cc-3oc2c1 (stereo partly drawn) [compound 7] | 27 ± 9 nM | 26 ± 9 nM | 34 ± 9 nM | 5.6 ± 0.6 nM | 200 ± 100 nM | 330 ± 80 nM | – | – | – | – | – | –
2 | CCN(CC)c1ccc2c(-c3ccccc3C(=O)N3CCCN(C(=O)[C@]45CC[C@@H](C)[C@H](C)[C@H]4C4=CC[C@@H]6[C@@]7(C)C[C@@H](OC(C)=O)[C@H](OC(C)=O)[C@@](C)(COC(C)=O)C7CC[C@@]6(C)[C@]4(C)CC5)CC3)c3ccc(=[N+](CC)CC)cc-3oc2c1 (stereo partly drawn) [compound 12, (2α,3β,4α)-9-[2-{[4-(2α,3β,23-Tris(Acetyloxy)-urs-12-en-28-oyl)-Homopiperazinyl]Carbonyl}Phenyl]-3,6-Bis(Diethylamino)-Xanthylium Chloride] | – | 5.5 ± 2.3 nM | 7.1 ± 2.1 nM | 0.8 ± 0.1 nM | 17.7 ± 4.9 nM | 65 ± 26.2 nM | – | – | – | – | – | –
3 | CCCCN(CCCC)c1ccc2c(-c3ccccc3C(=O)N3CCCN(C(=O)[C@]45CC[C@@H](C)[C@H](C)[C@H]4C4=CC[C@@H]6[C@@]7(C)C[C@@H](OC(C)=O)[C@H](OC(C)=O)[C@@](C)(COC(C)=O)C7CC[C@@]6(C)[C@]4(C)CC5)CCC3)c3ccc(=[N+](CCCC)CCCC)cc-3oc2c1 (stereo partly drawn) [compound 19, (2α,3β,4α)-9-[2-[{4-(2α,3β,23-Tris(Acetyloxy)-urs-12-en-28-oyl)-1,5-Diazocan-1-Yl]Carbonyl}Phenyl]-3,6-Bis(Dibutylamino)-Xanthylium Chloride] | 30 ± 10 nM | 30 ± 10 nM | 40 ± 5 nM | 6 ± 2 nM | 170 ± 80 nM | 240 ± 80 nM | – | – | – | – | – | –
4 | CCCN(CCC)c1ccc2c(-c3ccccc3C(=O)N3CCCN(C(=O)[C@]45CC[C@@H](C)[C@H](C)[C@H]4C4=CC[C@@H]6[C@@]7(C)C[C@@H](OC(C)=O)[C@H](OC(C)=O)[C@@](C)(COC(C)=O)C7CC[C@@]6(C)[C@]4(C)CC5)CC3)c3ccc(=[N+](CCC)CCC)cc-3oc2c1 (stereo partly drawn) [compound 13, (2α,3β,4α)-9-[2-{[4-(2α,3β,23-Tris(Acetyloxy)-urs-12-en-28-oyl)-Homopiperazinyl]Carbonyl}Phenyl]-3,6-Bis(Dipropylamino)-Xanthylium Chloride] | 3.9 ± 0.6 nM | 6 ± 1 nM | 10 ± 1 nM | 1.1 ± 0.1 nM | 41 ± 9 nM | 100 ± 50 nM | – | – | – | – | – | –
5 | CC(=O)OC[C@@]1(C)C2CC[C@]3(C)[C@H](CC=C4[C@@H]5[C@@H](C)[C@H](C)CC[C@]5(C(=O)N5CCN(C(=O)c6ccccc6C6=c7cc8c9c(c7Oc7c6cc6c%10c7CCCN%10CCC6)CCC[N+]=9CCC8)CC5)CC[C@]43C)[C@@]2(C)C[C@@H](OC(C)=O)[C@@H]1OC(C)=O (stereo partly drawn) [compound 10] | 45 ± 4 nM | 50 ± 20 nM | 50 ± 10 nM | 9 ± 2 nM | 220 ± 50 nM | 250 ± 50 nM | – | – | – | – | – | –
6 | CCCCN(CCCC)c1ccc2c(-c3ccccc3C(=O)N3CCN(C(=O)[C@]45CC[C@@H](C)[C@H](C)[C@H]4C4=CC[C@@H]6[C@@]7(C)C[C@@H](OC(C)=O)[C@H](OC(C)=O)[C@@](C)(COC(C)=O)C7CC[C@@]6(C)[C@]4(C)CC5)CC3)c3ccc(=[N+](CCCC)CCCC)cc-3oc2c1 (stereo partly drawn) [compound 9, (2α,3β,4α)-9-[2-{[4-(2,3,23-Tris(Acetyloxy)-urs-12-en-28-oyl)-Piperazinyl]Carbonyl}Phenyl]-3,6-Bis(Dibutylamino)-Xanthylium Chloride] | 16 ± 3 nM | 26 ± 8 nM | 50 ± 10 nM | 4.9 ± 0.7 nM | 210 ± 50 nM | 400 ± 100 nM | – | – | – | – | – | –
7 | COc1cccc2c1C(=O)c1c(O)c3c(c(O)c1C2=O)C[C@@](O)(C(=O)CO)C[C@@H]3O[C@H]1C[C@H](N)[C@H](O)[C@H](C)O1 [DX, doxorubicin, reference compound] | – | – | – | – | – | – | 900 ± 200 nM | 1100 ± 300 nM | 20 ± 10 nM | 11900 ± 1300 nM | – | –
8 | CCCN(CCC)c1ccc2c(-c3ccccc3C(=O)N3CCCN(C(=O)[C@]45CC[C@@H](C)[C@H](C)[C@H]4C4=CC[C@@H]6[C@@]7(C)C[C@@H](OC(C)=O)[C@H](OC(C)=O)[C@@](C)(COC(C)=O)C7CC[C@@]6(C)[C@]4(C)CC5)CCC3)c3ccc(=[N+](CCC)CCC)cc-3oc2c1 (stereo partly drawn) [compound 18, (2α,3β,4α)-9-[2-[{4-(2α,3β,23-Tris(Acetyloxy)-urs-12-en-28-oyl)-1,5-Diazocan-1-Yl]Carbonyl}Phenyl]-3,6-Bis(Dipropylamino)-Xanthylium Chloride] | 7.4 ± 0.9 nM | 12 ± 4 nM | 17 ± 2 nM | 1.9 ± 0.2 nM | 70 ± 20 nM | 360 ± 50 nM | – | – | – | – | – | –
9 | O=C(O)c1ccccc1C1=c2cc3c4c(c2Oc2c1cc1c5c2CCCN5CCC1)CCC[N+]=4CCC3 [Rh5, rhodamine 101, reference compound] | – | – | – | – | – | – | 18500 ± 1800 nM | 8200 ± 800 nM | 8000 ± 1500 nM | 11900 ± 1300 nM | 11200 ± 1800 nM | 11800 ± 1100 nM
10 | CCCN(CCC)c1ccc2c(-c3ccccc3C(=O)O)c3ccc(=[N+](CCC)CCC)cc-3oc2c1 [Rh3, reference compound] | – | – | – | – | – | – | 9300 ± 400 nM | 6400 ± 400 nM | 6700 ± 700 nM | 12000 ± 700 nM | 8200 ± 200 nM | 8000 ± 700 nM
11 | CCCCN(CCCC)c1ccc2c(-c3ccccc3C(=O)N3CCCN(C(=O)[C@]45CC[C@@H](C)[C@H](C)[C@H]4C4=CC[C@@H]6[C@@]7(C)C[C@@H](OC(C)=O)[C@H](OC(C)=O)[C@@](C)(COC(C)=O)C7CC[C@@]6(C)[C@]4(C)CC5)CC3)c3ccc(=[N+](CCCC)CCCC)cc-3oc2c1 (stereo partly drawn) [compound 14, (2α,3β,4α)-9-[2-{[4-(2α,3β,23-Tris(Acetyloxy)-urs-12-en-28-oyl)-Homopiperazinyl]Carbonyl}Phenyl]-3,6-Bis(Dibutylamino)-Xanthylium Chloride] | 14 ± 1 nM | 25 ± 5 nM | 49 ± 6 nM | 4.5 ± 0.4 nM | 150 ± 50 nM | 200 ± 100 nM | – | – | – | – | – | –
12 | CC(=O)OC[C@@]1(C)C2CC[C@]3(C)[C@H](CC=C4[C@@H]5[C@@H](C)[C@H](C)CC[C@]5(C(=O)N5CCCN(C(=O)c6ccccc6-c6c7ccc(=[N+](C)C)cc-7oc7cc(N(C)C)ccc67)CC5)CC[C@]43C)[C@@]2(C)C[C@@H](OC(C)=O)[C@@H]1OC(C)=O (stereo partly drawn) [compound 11, (2α,3β,4α)-9-[2-{[4-(2α,3β,23-Tris(Acetyloxy)-urs-12-en-28-oyl)-Homopiperazinyl]Carbonyl}Phenyl]-3,6-Bis(Dimethylamino)-Xanthylium Chloride] | 39 ± 3 nM | 20 ± 10 nM | 28 ± 5 nM | 3.2 ± 0.4 nM | 400 ± 100 nM | 300 ± 100 nM | – | – | – | – | – | –
13 | CC(=O)OC[C@@]1(C)C2CC[C@]3(C)[C@H](CC=C4[C@@H]5[C@@H](C)[C@H](C)CC[C@]5(C(=O)N5CCCN(C(=O)c6ccccc6C6=c7cc8c9c(c7Oc7c6cc6c%10c7CCCN%10CCC6)CCC[N+]=9CCC8)CC5)CC[C@]43C)[C@@]2(C)C[C@@H](OC(C)=O)[C@@H]1OC(C)=O (stereo partly drawn) [compound 15] | 8 ± 1 nM | 10 ± 6 nM | 19 ± 6 nM | 3.1 ± 0.5 nM | 80 ± 30 nM | 140 ± 50 nM | – | – | – | – | – | –
14 | CC(=O)OC[C@@]1(C)C2CC[C@]3(C)[C@H](CC=C4[C@@H]5[C@@H](C)[C@H](C)CC[C@]5(C(=O)N5CCN(C(=O)c6ccccc6-c6c7ccc(=[N+](C)C)cc-7oc7cc(N(C)C)ccc67)CC5)CC[C@]43C)[C@@]2(C)C[C@@H](OC(C)=O)[C@@H]1OC(C)=O (stereo partly drawn) [compound 6, (2α,3β,4α)-9-[2-{[4-(2,3,23-Tris(acetyloxy)-urs-12-en-28-oyl)-Piperazinyl]Carbonyl}Phenyl]-3,6-bis(Dimethylamino)-Xanthylium Chloride] | 150 ± 8 nM | 230 ± 80 nM | 150 ± 30 nM | 43 ± 8 nM | 700 ± 200 nM | 550 ± 60 nM | – | – | – | – | – | –
15 | CCCCN(CCCC)c1ccc2c(-c3ccccc3C(=O)O)c3ccc(=[N+](CCCC)CCCC)cc-3oc2c1 [Rh4, reference compound] | – | – | – | – | – | – | 4900 ± 300 nM | 3080 ± 60 nM | 3400 ± 100 nM | 4300 ± 100 nM | 4300 ± 100 nM | 4300 ± 300 nM
